Measurements taken from paper PMC10373114, “CDK2 regulates collapsed replication fork repair in CCNE1-amplified ovarian cancer cells via homologous recombination” (NAR Cancer, 2023).

Columns and labels:
[1] = Pharmacokinetics (plasma concentrations after oral dose); format: in vivo, NOD-SCID mice; details: single p.o. dose
Excerpt: (A) Chemical structures of BLU2256. […]
family members. Error bars represent SD of at least duplicate independent experiments. (D) NanoBret assessment of BLU2256 target engagement in indicated CDK complexes expressed in HEK-293 cells. Error bars represent SD of at least duplicate independent experiments. (E) Dose-response curve for pRb T821/826 […]
Error bars represent SD of at least duplicate independent experiments. (F) Dose-response curve for pLamin S22 inhibition by BLU1851 in OVCAR-3 and COV644 cells. Error bars represent SD of duplicate independent experiments. (G) Do se -response curves in MCF-7, OVCAR-3 cells. Cells were treated with a 10- point dose response of indicated compounds and incubated for 5 days before CyQuant assay was performed. […]
Contemporaneously, cells were transfected with a 3X-FLAG donor plasmid plus a plasmid containing Cas9 and a single guide RNA (sgRNA), scramble control (sgScr), or an sgRNA targeting beta- actin (sgACTB). […] The percent body weight change is calculated by normalizing to day 0 per treatment group. […] (M) Quantification of Western blot for pRb S807/811 normalized individually to actin and then to vehicle group to calculate % inhibition. […]
(N) Relative body weight over treatment time. The percent body weight change is calculated by normalizing to day 0 per treatment group. […] The percent body weight change is calculated by normalizing to day 0 per treatment group. […]

OVCAR-3 cells = assay: CyQuant proliferation assay; format: cell-based, human; details: proliferation, 5 days, mean of two independent replicates
Procedure: (§1) OVCAR-3, COV644, or MCF-7 cells were seeded at 1000 cells/well in 384-well black, clear bottom plates and allowed to adhere overnight at 37°C/5% CO2. The following day, cells were treated with compound in a 10-point dose response, 1:4 dilutions. After 5 days of incubation, CyQuant Direct Proliferation Assay was performed according to the manufacturer's instructions. Data were processed with GraphPad Prism using a four-parameter fit to calculate IC50.

CDK7/CycH1/MNAT1 = CDK7/CycH1/MNAT1 (Homo sapiens, UniProt P50613); assay: ATP-competition caliper enzyme assay; format: biochemical; details: 1 mM ATP
CDK7/CycH1/MNAT1, sequence (P50613 whole entry): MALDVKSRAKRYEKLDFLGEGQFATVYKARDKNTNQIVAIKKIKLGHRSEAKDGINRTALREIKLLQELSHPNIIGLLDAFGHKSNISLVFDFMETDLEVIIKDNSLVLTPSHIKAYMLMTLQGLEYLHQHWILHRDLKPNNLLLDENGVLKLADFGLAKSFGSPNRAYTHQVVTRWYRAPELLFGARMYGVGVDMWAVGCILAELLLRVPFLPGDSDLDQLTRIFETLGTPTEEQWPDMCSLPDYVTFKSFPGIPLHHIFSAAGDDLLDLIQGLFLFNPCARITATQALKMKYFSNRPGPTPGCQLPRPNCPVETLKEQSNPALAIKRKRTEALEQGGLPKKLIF
CDK7/CycH1/MNAT1, sequence (P51946 whole entry partner): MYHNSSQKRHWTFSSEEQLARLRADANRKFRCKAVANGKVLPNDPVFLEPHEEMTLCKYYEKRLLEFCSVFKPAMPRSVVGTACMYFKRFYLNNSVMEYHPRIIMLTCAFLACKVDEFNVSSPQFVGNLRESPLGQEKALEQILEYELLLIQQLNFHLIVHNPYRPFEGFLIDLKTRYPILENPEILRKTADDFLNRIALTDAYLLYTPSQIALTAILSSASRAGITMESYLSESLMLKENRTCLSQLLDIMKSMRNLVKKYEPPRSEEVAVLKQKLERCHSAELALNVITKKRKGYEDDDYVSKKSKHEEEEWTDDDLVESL
CDK7/CycH1/MNAT1, sequence (P51948 whole entry partner): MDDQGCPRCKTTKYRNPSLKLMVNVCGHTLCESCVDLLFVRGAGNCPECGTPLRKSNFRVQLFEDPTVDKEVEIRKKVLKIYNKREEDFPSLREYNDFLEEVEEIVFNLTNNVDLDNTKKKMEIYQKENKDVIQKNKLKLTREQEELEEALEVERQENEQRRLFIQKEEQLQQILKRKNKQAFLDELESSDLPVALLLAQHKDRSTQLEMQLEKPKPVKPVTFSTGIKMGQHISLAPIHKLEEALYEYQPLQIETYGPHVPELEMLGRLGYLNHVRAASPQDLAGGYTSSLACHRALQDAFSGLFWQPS

MCF-7 cells = assay: CyQuant proliferation assay; format: cell-based; details: proliferation, 5 days, CyQuant; mean of two independent replicates; read-out: MCF-7 IC50
Procedure: as §1

CDK7/CycH1 = target: T1, CDK7/CycH1 (Homo sapiens, UniProt P50613); assay: NanoBRET target engagement assay; format: binding; details: HEK-293T cells transfected with CDK complex
T1 construct: expressed in transfected cells; host or cells: HEK293
T1 sequence (P50613 whole entry): as the sequence (P50613 whole entry) above
T1 sequence (P51946 whole entry partner): as the sequence (P51946 whole entry partner) above
Procedure: HEK293 cells were prepared to a final concentration of 100 000 cells/ml in 1% fetal bovine serum (FBS) Opti-MEM. Transfection mixtures were prepared with 1 μg of plasmid encoding NanoLuc-fused CDK and 9 μg of plasmid encoding cyclin, diluted in 1 ml Opti-MEM. FuGENE HD (Promega) was added to transfection mixture at a ratio of 30 μl/1 ml. After liposome formation, the lipid:DNA complex was added at a 1:20 ratio to HEK293 cells in suspension. Cells were plated in 384-well tissue culture plates and incubated overnight (20–30 h) at 37°C/5% CO2. Compounds were prepared from DMSO stock solutions and added to cell plates with a final top concentration of 10 000 nM. NanoBRET tracer solution was prepared from 100X tracer solution. For CDK1/cyclin B1, CDK9/cyclin T1, and CDK2/cyclin E1 assays, tracer K10 was used at a final concentration of 0.5 μM, 0.250 μM, and 0.125 μM, respectively. For CDK4/cyclin D1, and CDK6/cyclin D3, tracer K7 was used at a final concentration of 0.0625 μM. For CDK7/cyclin H1, tracer K7 was used at a final concentration of 0.5 μM. The plate was incubated at 37°C/5% CO2 for 2 h. NanoBRET substrate solution was prepared 15 min prior to the assay endpoint using serum-free OptiMEM. […] The plate was then shaken and read using the Perkin Elmer Envision plate reader. The donor emission was measured at 450 nm, followed by acceptor emission at 610 nm. […]

OVCAR-3 xenografts = assay: OVCAR-3 xenograft tumor growth inhibition; format: in vivo, NOD-SCID mice
Procedure: Female NOD-SCID mice were purchased from Shanghai Lingchang BioTech Co., Ltd at 6–8 weeks old. Mice were housed in solid bottom polycarbonate ventilated cages at a temperature of 20–26°C in 40–70% humidity. Mice were kept on a 12-h light,
Twelve-hour dark cycle with regularly changed 100% filtered air. Municipal water and rodent diet were provided ad libitum. The general health of the animals was monitored through gross observation, regular body weight measurement, and monitoring of food and water intake. All procedures related to animal handling, care, and treatment were performed according to the protocol approved by the Institutional Animal Care and Use Committee of Shanghai Chempartner following the guidance of the Association for Assessment and Accreditation of Laboratory Animal Care (AAALAC).
OVCAR-3 cells were passaged through mice once, and a cell line was rederived from the tumor, named ‘T2A.’ OVCAR-3 T2A cells were cultured in RPMI 1640 media supplemented with 20% FBS and 0.01 mg/ml insulin. To establish the OVCAR-3 xenograft model, 6 × 10^6 cells per mouse were implanted subcutaneously into the right hind flank of NOD-SCID female mice. Cells were suspended in 50% Matrigel and 50% RPMI 1640 media serum free media prior to implantation.
In OVCAR-3 tumor growth inhibition studies, animals were randomized and treatment began when tumors reached ∼200 mm^3 in size (n = at least eight/group). […] Etoposide was prepared in 5% DMSO + 40% PEG300 + 5%Tween 80 + 50%dd water and dosed intraperitoneally QD at 1.25 mg/kg for 3 days for each week of the study. Olaparib was prepared in 10% HP-ß-CD in water and dosed intraperitoneally QD at 50 mg/kg. Tumor sizes and body weight were measured twice weekly. Tumor sizes were measured in two dimensions using a caliper, and the volume (mm^3) was calculated using the formula: V = 0.5 a x b^2 where a and b are the long and short diameters of the tumor, respectively.

kinases tested (n = 468) = assay: KINOMEscan kinome selectivity; format: binding; details: fraction of kinases with <10% of control at 3 μM among 468 kinases tested

Structure (SMILES): CC(C)(O)Cn1cc(-c2nc(Nc3ccc(S(N)(=O)=O)cc3F)ncc2C(F)(F)F)cn1 [BLU2256]
- pharmacokinetics compared with BLU1851 [1]: superior pharmacokinetics
- IC50 (OVCAR-3 cells): 82.5 nM
- IC50 (CDK7/CycH1/MNAT1): > 6670 nM
- IC50 (MCF-7 cells): 1280 nM
- IC50 (CDK7/CycH1): 4420 nM
- tumor growth inhibition (OVCAR-3 xenografts; 3 mg/kg QD PO): sub-efficacious with minor tumor growth inhibition
- tumor growth inhibition (OVCAR-3 xenografts; 5 mg/kg BID PO): efficacious dose, inducing tumor stasis
- body weight (OVCAR-3 xenografts; dose titration, PO): without a change in body weight
- tumor growth inhibition (OVCAR-3 xenografts; dose titration, PO QD for 3 weeks): dose-dependent tumor growth inhibition
- inhibition of RB1 phosphorylation in tumors (OVCAR-3 xenografts; on-target activity): dose and time-dependent
- Kinome S (10) (kinases tested (n = 468)): 0.040
